The target in this test is tick anticoagulant peptide (TAP) (Ornithodoros moubata, UniProt P17726).

Molecules are shown by their SMILES. Read-outs that look alike come from different tables or passages of the source.

Chain of tick anticoagulant peptide (TAP) (P17726 whole entry): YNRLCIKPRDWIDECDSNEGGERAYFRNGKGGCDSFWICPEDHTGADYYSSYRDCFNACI

Consider `[Cl-].[Na+]` [NaCl], for which the “reduction of the extent of denaturation of TAP by 8M urea” value runs as follows: (in the presence of 0.5 M NaCl) 23%; (in the presence of 1M NaCl) 50%. Moreover, for the setting “in the presence of urea, after addition of the protein stabilizer (FIG. 7 column 3)”, the “reversal of the structure of denatured TAP” value is on record as “converts back to the native structure”.

These data come from patent US7601683B2, “Protein conformational isomers, methods of making, methods for using, compositions comprising and products made therewith” (Board of Regents of the University of Texas System, priority 2001, dated 2009).
